# Laboratory results as given in US8003630B2, “Combinatorial therapies for the treatment of neoplasias using the opioid growth factor receptor” (The Penn State Research Foundation, priority 2004, dated 2011).
# Key:
# [1] = Plasma levels of OGF by radioimmunoassay, SCC-1 tumor mice; format: in vivo, nude mice; details: at termination
# Procedure: Plasma samples were assayed in duplicate.
# [2] = tested on: SCC-1 SCCHN cells; details: athymic nude, mouse, in vivo
# Procedure: Tumor dimensions were recorded every day beginning on the day that the tumors were considered measurable.
# [3] = tested on: PANC-1 cells; assay: Growth assay of PANC-1 cells in 6-well plates; format: cell-based, human; details: 72 hr, OGF 10^−6 M and/or gemcitabine 10^−8 M
# Procedure: MIA PaCa-2 and PANC-1 human pancreatic adenocarcinoma cell lines were purchased from the American Type Culture Collection (Manasass, Va.). MIA PaCa-2 cells were derived from an undifferentiated epithelial carcinoma occurring in the body and tail of the pancreas in a person. The PANC-1 cells were derived from an undifferentiated carcinoma from the head of the pancreas in a person. MIA PaCa-2 and PANC-1 cells were grown in Dulbecco's MEM (modified) media; media was supplemented with 10% fetal calf serum, 1.2% sodium bicarbonate, and antibiotics (5,000 Units/ml penicillin, 5 mg/ml streptomycin, 10 mg/ml neomycin), and the cells were maintained in a humidified atmosphere of 7% CO2/93% air at 37° C.
# MIA PaCa-2 cells were seeded at equivalent amounts into either 75 cm^2 flasks, 6-well plates, or 96-well plates (Falcon) and counted 24 hr later to determine plating efficiency. […]
# Cell number was recorded either by using a mitogenic bioassay, the MTS assay (Cell Titer 96 One Solution, Promega, Madison, Wis.), and measuring absorbency after 4 hr on a Biorad (Model 3550) plate reader at 490 nm, or by counting cells. For manual counts, cells were harvested with a solution of 0.25% trypsin/0.53 mM EDTA, centrif uiged, and counted with a hemacytometer. Cell viability was determined by trypan blue staining. At least two aliquots per flask or 4-10 wells/treatment were counted at each time.
# [4] = tested on: advanced unresectable pancreatic adenocarcinoma; details: some patients; cited from earlier work
# [5] = tested on: MiaPaCa-2 cells; assay: Growth curves of MiaPaCa-2 cells, cell proliferation (MTT) assay, absorbency; details: MiaPaCa-2, 5-FU 10^-5 M and/or OGF 10^−6 M
# From the text: Cells were counted using a standard MTT assay. In general, each data point represents the average absorbency taken from 10 wells/treatment; error bars represent the S.E.M.
molecule,measurement,setting,value
CC(=O)O[C@H]1C(=O)[C@@]2(C)[C@H]([C@H](OC(=O)c3ccccc3)[C@]3(O)C[C@H](OC(=O)[C@H](O)[C@@H](NC(=O)c4ccccc4)c4ccccc4)C(C)=C1C3(C)C)[C@]1(OC(C)=O)CO[C@@H]1C[C@@H]2O [paclitaxel],OGF levels in plasma versus control mice with tumors,[1],No differences
same,"mice still alive on termination day, % of the group",[2]; 50 day,8%
same,day on which mice began dying,[2]; 50 days,19 days
[Met^5]-enkephalin [OGF],fewer cells than in control cultures,[3],31%
same,longest survival of patients,[4],≤ 23 months
same,decrease in cell number from controls,[5]; 24 h,7.1%
same,decrease in cell number from controls,[5]; 48 h,7.0%
same,decrease in cell number from controls,[5]; 72 h,6.9%
same,decrease in cell number from controls,[5]; 96 h,14.2%
